# Measured values reported in patent publication US20230099344A1, “COMPOUNDS AND METHODS FOR THE TARGETED DEGRADATION OF IRAK-4” (Arvinas Operations, Inc., priority 2021, published 2023).
# Molecular target: T1, IRAK-4 (Homo sapiens, UniProt Q9NWZ3)
# T1 sequence (Q9NWZ3 1-460): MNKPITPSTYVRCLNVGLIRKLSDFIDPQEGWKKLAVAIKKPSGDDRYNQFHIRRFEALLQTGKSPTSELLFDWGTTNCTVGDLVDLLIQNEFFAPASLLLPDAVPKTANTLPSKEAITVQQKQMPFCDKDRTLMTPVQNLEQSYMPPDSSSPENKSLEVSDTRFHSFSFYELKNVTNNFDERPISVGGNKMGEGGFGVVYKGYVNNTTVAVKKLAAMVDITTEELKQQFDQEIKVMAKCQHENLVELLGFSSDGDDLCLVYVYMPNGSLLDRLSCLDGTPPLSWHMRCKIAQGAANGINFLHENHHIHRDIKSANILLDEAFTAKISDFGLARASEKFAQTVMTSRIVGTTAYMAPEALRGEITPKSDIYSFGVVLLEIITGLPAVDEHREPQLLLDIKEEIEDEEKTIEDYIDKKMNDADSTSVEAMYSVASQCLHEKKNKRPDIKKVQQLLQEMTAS
# Experiment: IRAK-4 ELISA, PBMC degradation
# Type: cell-based
# Set-up: endogenous in cells; host or cells: PBMC
# Details: treated overnight
# Description: Reagents: Human IRAK-4 Matched Antibody Pair Kit (Abcam ab218182) and ELISA Accessory Pack (Abcam ab210905).
# Cell Treatment and Lysis:
# 1. OCI-Ly10: 200,000 cells are seeded at 1×10^6/ml in 96-well U-bottom plates 200 ul per well, treated with compound the same day. Incubate overnight. 2. PBMC: 800,000 cells are seeded at 2×10^6/ml in 96-well U-bottom deep-well plates, 400 ul per well, treated with compound the same day. Incubate overnight.
# Cell lysate is collected and analyzed by ELISA for IRAK-4 levels.
DC50 [nM],Dmax [%],PBMC DC90,Compound
1 to 5,≥ 90,A (A represents a DC90 value <10.0 nM),O=C1CCC(N2C(=O)c3ccc(N4CC(F)(CN5CCC(n6cc7cc(NC(=O)c8cnn9cccnc89)c(OC8CC8)cc7n6)CC5)C4)cc3C2=O)C(=O)N1 (stereo not drawn) [Example 200]
5 to 10,80 to 90,D (D represents a DC90 value ≥50 nM),CC(C)Oc1cc2c(cc1NC(=O)c1cnn3cccnc13)CN(C1CCN(CC(F)(F)C3CN(c4ccc5c(c4)C(=O)N(C4CCC(=O)NC4=O)C5=O)C3)CC1)C2=O (stereo not drawn) [Example 40]
< 1,70 to 80,A (A represents a DC90 value <10.0 nM),O=C1CCC(N2Cc3cc(N4CC(F)(CN5CCC(N6Cc7cc(NC(=O)c8cnn9cccnc89)c(OCC8CC8)cc7C6=O)CC5)C4)ccc3C2=O)C(=O)N1 (stereo not drawn) [Example 104]
< 1,≥ 90,A (A represents a DC90 value <10.0 nM),CC(C)Oc1cc2c(cc1NC(=O)c1cnn3cccnc13)CN(C1CCN(CC3(O)CN(c4ccc5c(c4)C(=O)N(C4CCC(=O)NC4=O)C5=O)C3)CC1)C2=O (stereo not drawn) [Example 61]
1 to 5,70 to 80,A (A represents a DC90 value <10.0 nM),O=C1CCC(N2C(=O)c3ccc(N4CC(F)(CN5CCC(N6Cc7cc(NC(=O)c8cnn9cccnc89)c(OC8CCC8)cc7C6=O)CC5)C4)cc3C2=O)C(=O)N1 (stereo not drawn) [Example 215]
< 1,80 to 90,A (A represents a DC90 value <10.0 nM),CC(C)Oc1cc2c(cc1NC(=O)c1cnn3cccnc13)CN(C1CCN(CC3(C)CN(c4ccc5c(c4)C(=O)N(C4CCC(=O)NC4=O)C5=O)C3)CC1)C2=O (stereo not drawn) [Example 72]
< 1,≥ 90,A (A represents a DC90 value <10.0 nM),CC(C)Oc1cc2c(cc1NC(=O)c1cnn3cccnc13)CN(C[C@@H](F)C1CCN(CC3CN(c4ccc5c(c4)C(=O)N(C4CCC(=O)NC4=O)C5=O)C3)CC1)C2=O (stereo partly drawn) [Example 70]

# The next lines start with the molecule.
Compound,DC50 [nM],Dmax [%],PBMC DC90
O=C1CCC(N2C(=O)c3ccc(N4CC(F)(CN5CCC(n6cc7cc(NC(=O)c8cnn9ccc(N%10C[C@H]%11C[C@@H]%10CO%11)nc89)c(OCC8CC8)cc7n6)CC5)C4)cc3C2=O)C(=O)N1 (stereo partly drawn) [Example 239],5 to 10,< 70,C (C represents a DC90 value ≥25.0 nM and <50 nM)
O=C1CCC(N2C(=O)c3ccc(N4CCN(CCOC[C@H](F)CN5Cc6cc(NC(=O)c7cnn8cccnc78)c(N7CCOCC7)cc6C5=O)CC4)cc3C2=O)C(=O)N1 (stereo partly drawn) [Example 92],1 to 5,≥ 90,B (B represents a DC90 value ≥10.0 nM and <25.0 nM)
CC(C)Oc1nc2nn(C3CCN(CC4(F)CN(c5ccc6c(c5)C(=O)N(C5CCC(=O)NC5=O)C6=O)C4)CC3)cc2cc1NC(=O)c1cnn2cccnc12 (stereo not drawn) [Example 219],5 to 10,80 to 90,C (C represents a DC90 value ≥25.0 nM and <50 nM)
CC(C)Oc1cc2c(cc1NC(=O)c1cnn3cccnc13)CN(C[C@@H](F)C1CCN(CC3CN(c4ccc5c(c4)CN(C4CCC(=O)NC4=O)C5=O)C3)CC1)C2=O (stereo partly drawn) [Example 16],< 1,≥ 90,A (A represents a DC90 value <10.0 nM)
CC(C)(C)Oc1nc2nn(C3CCN(CC4(F)CN(c5ccc6c(c5)C(=O)N(C5CCC(=O)NC5=O)C6=O)C4)CC3)cc2cc1NC(=O)c1cnn2cccnc12 (stereo not drawn) [Example 220],1 to 5,80 to 90,C (C represents a DC90 value ≥25.0 nM and <50 nM)
O=C1CCC(N2C(=O)c3ccc(N4CC(F)(CN5CCC(n6cc7cc(NC(=O)c8cnn9ccc(N%10CCOCC%10)nc89)c(OCC8CC8)cc7n6)CC5)C4)cc3C2=O)C(=O)N1 (stereo not drawn) [Example 233],5 to 10,80 to 90,C (C represents a DC90 value ≥25.0 nM and <50 nM)
CC(C)Oc1cc2c(cc1NC(=O)c1cnn3cccnc13)CN(C1CCC(N(CC(F)F)C3CN(c4ccc5c(c4)C(=O)N(C4CCC(=O)NC4=O)C5=O)C3)CC1)C2=O (stereo not drawn) [Example 331],1 to 5,≥ 90,B (B represents a DC90 value ≥10.0 nM and <25.0 nM)
O=C1CCC(N2C(=O)c3ccc(N4CCC[C@H](CN5CCC(n6cc7cc(NC(=O)c8cnn9cccnc89)c(OCC8CC8)cc7n6)CC5)C4)cc3C2=O)C(=O)N1 (stereo partly drawn) [Example 174],1 to 5,≥ 90,B (B represents a DC90 value ≥10.0 nM and <25.0 nM)
CC(C)Oc1cc2c(cc1NC(=O)c1cnn3cccnc13)CN(C1CCN(CC3(F)CN(c4ccc(C(=O)NC5CCC(=O)NC5=O)c(F)c4)C3)CC1)C2=O (stereo not drawn) [Example 297],1 to 5,≥ 90,B (B represents a DC90 value ≥10.0 nM and <25.0 nM)
CCN(C1CN(c2ccc3c(c2)C(=O)N(C2CCC(=O)NC2=O)C3=O)C1)[C@H]1CC[C@H](n2cc3cc(NC(=O)c4cnn5cccnc45)c(OC(C)C)cc3n2)CC1 (stereo partly drawn) [Example 319],1 to 5,80 to 90,A (A represents a DC90 value <10.0 nM)
COc1cc2c(cc1N1CC(F)(CN3CCC(n4cc5cc(NC(=O)c6cnn7cccnc67)c(OCC6CC6)cc5n4)CC3)C1)C(=O)N(C1CCC(=O)NC1=O)C2=O (stereo not drawn) [Example 244],1 to 5,80 to 90,B (B represents a DC90 value ≥10.0 nM and <25.0 nM)
CN(CC1(F)CCN(c2ccc3c(c2)C(=O)N(C2CCC(=O)NC2=O)C3=O)CC1)[C@H]1CC[C@H](n2cc3cc(NC(=O)c4cnn5cccnc45)c(OCC4CC4)cc3n2)CC1 (stereo partly drawn) [Example 352],1 to 5,80 to 90,B (B represents a DC90 value ≥10.0 nM and <25.0 nM)
O=C1CCC(N2C(=O)c3ccc(N4CC(F)(CN5CCC(N6Cc7cc(NC(=O)c8cnn9cccnc89)c(OCC(F)F)cc7C6=O)CC5)C4)cc3C2=O)C(=O)N1 (stereo not drawn) [Example 102],1 to 5,70 to 80,C (C represents a DC90 value ≥25.0 nM and <50 nM)
CC(C)Oc1cc2c(cc1NC(=O)c1cnn3cccnc13)CN(CCOCC1CCN(c3ccc4c(c3)C(=O)N(C3CCC(=O)NC3=O)C4=O)CC1)C2=O (stereo not drawn) [Example 90],< 1,≥ 90,A (A represents a DC90 value <10.0 nM)
O=C1CCC(N2C(=O)c3ccc(N4CC[C@H](N5CCC(n6cc7cc(NC(=O)c8cnn9cccnc89)c(OCC8CC8)cc7n6)CC5)C4)cc3C2=O)C(=O)N1 (stereo partly drawn) [Example 225],1 to 5,80 to 90,B (B represents a DC90 value ≥10.0 nM and <25.0 nM)
CC(C)Oc1cc2nn([C@H]3CC[C@H](N(C)C4CCN(c5ccc6c(c5)C(=O)N(C5CCC(=O)NC5=O)C6=O)CC4)CC3)cc2cc1NC(=O)c1cnn2cccnc12 (stereo partly drawn) [Example 317],< 1,≥ 90,A (A represents a DC90 value <10.0 nM)
CC(C)Oc1cc2c(cc1NC(=O)c1cnn3cccnc13)CN(C1CCN(C[C@H]3CCCN(c4ccc5c(c4)C(=O)N(C4CCC(=O)NC4=O)C5=O)C3)CC1)C2=O (stereo partly drawn) [Example 76],1 to 5,≥ 90,B (B represents a DC90 value ≥10.0 nM and <25.0 nM)
CC(C)Oc1cc2c(cc1NC(=O)c1cnn3ccc(N4CCOCC4)nc13)CN(C1CCC(N(C)C3CN(c4ccc5c(c4)CN(C4CCC(=O)NC4=O)C5=O)C3)CC1)C2=O (stereo not drawn) [Example 315],5 to 10,< 70,D (D represents a DC90 value ≥50 nM)
Cn1c(=O)n(C2CCC(=O)NC2=O)c2cccc(N3CC(F)(CN4CCC(n5cc6cc(NC(=O)c7cnn8cccnc78)c(OCC7CC7)cc6n5)CC4)C3)c21 (stereo not drawn) [Example 387],< 1,≥ 90,A (A represents a DC90 value <10.0 nM)
CC(C)Oc1nc2c(cc1NC(=O)c1cnn3cccnc13)CN(C1CCN(CCc3ccc4c(c3)CN(C3CCC(=O)NC3=O)C4=O)CC1)C2=O (stereo not drawn) [Example 399],1 to 5,≥ 90,B (B represents a DC90 value ≥10.0 nM and <25.0 nM)
COc1cc(CCN2CCC(N3Cc4cc(NC(=O)c5cnn6cccnc56)c(OC(C)C)cc4C3=O)CC2)cc2c1C(=O)N(C1CCC(=O)NC1=O)C2 (stereo not drawn) [Example 11],1 to 5,≥ 90,C (C represents a DC90 value ≥25.0 nM and <50 nM)
CC(C)Oc1cc2c(cc1NC(=O)c1cnn3cccnc13)CN(C1CCC(N(CC(F)(F)F)C3CN(c4ccc5c(c4)C(=O)N(C4CCC(=O)NC4=O)C5=O)C3)CC1)C2=O (stereo not drawn) [Example 332],≥ 10,≥ 90,D (D represents a DC90 value ≥50 nM)
CCN(C1CN(c2cccc3c2C(=O)N(C2CCC(=O)NC2=O)C3=O)C1)[C@H]1CC[C@H](n2cc3cc(NC(=O)c4cnn5cccnc45)c(OC(C)C)cc3n2)CC1 (stereo partly drawn) [Example 320],≥ 10,80 to 90,D (D represents a DC90 value ≥50 nM)
CN1CC(Oc2cc3nn(C4CCN(CC5CCN(c6ccc7c(c6)C(=O)N(C6CCC(=O)NC6=O)C7=O)CC5)CC4)cc3cc2NC(=O)c2cnn3cccnc23)C1 (stereo not drawn) [Example 152],≥ 10,< 70,D (D represents a DC90 value ≥50 nM)
